{
  "source": "PubChem BioAssay AID743160",
  "about": "(Sanford-Burnham Center for Chemical Genomics, 2013)",
  "note": "Activity calls are given as the source filed them. No rule for the calls is given here.",
  "data": [
    {"test_system": "H9c2 cells, DAPI nuclear count (cytotoxicity), overnight", "assay": "H9c2 cardiomyoblast cytotoxicity by nuclear count, SAR follow-up, cytotoxicity control for triacylglycerol accumulation inhibitor project, cell-based, DAPI fluorescence (AID 743160)", "values": [
      {"smiles": "COCCN1Cc2cccc(C(=O)Nc3cccc(-c4nc5ccc(Cl)cc5[nH]4)c3)c2C1=O", "IC50": "> 50 µM (inactive)"},
      {"smiles": "CCC(C)(C)NC(=O)C(c1ccc(OC)cc1)N(Cc1cccs1)C(=O)CCC(=O)Nc1cc(C)on1", "note": "(stereo unspecified)", "IC50": "> 50 µM (inactive)"},
      {"smiles": "COc1ccc(CCN2Cc3cccc(C(=O)Nc4cccc(-c5nc6ccccc6[nH]5)c4)c3C2=O)cc1OC", "IC50": "> 50 µM (inactive)"},
      {"smiles": "O=C(Nc1cccc(-c2nc3ccccc3[nH]2)c1)c1cccc2c1C(=O)N(CCN1CCOCC1)C2", "IC50": "> 50 µM (inactive)"},
      {"smiles": "O=C(CCC(=O)N1CCOc2ccc(Cl)cc21)NCCCN1CCC(Cc2ccccc2)CC1", "IC50": "13.5 µM (inactive)"},
      {"smiles": "Cc1ccccc1NC(=O)CSc1nc(Nc2ccccc2)nc(N2CCOCC2)n1", "IC50": "> 50 µM (inactive)"},
      {"smiles": "O=C(Nc1cccc(-c2nc3ccccc3[nH]2)c1)c1cccc2c1C(=O)N(CCOc1ccccc1)C2", "IC50": "> 50 µM (inactive)"},
      {"smiles": "O=C1COc2ccc(C(=O)CSc3nc4ccccc4c(=O)n3-c3ccc(Cl)c(Cl)c3)cc2N1", "IC50": "7.69 µM (inactive)"},
      {"smiles": "CCn1c(SCC(=O)Nc2nc(-c3ccc(C)cc3)cs2)nnc1-c1ccccc1O", "IC50": "8.1 µM (inactive)"},
      {"smiles": "Cc1cccc2c(C(=O)N3CCN(c4ccccc4)CC3)cc(-c3ccncc3)nc12", "IC50": "> 50 µM (inactive)"},
      {"smiles": "O=C(Nc1cccc(-c2nc3ccccc3[nH]2)c1)c1cccc2c1C(=O)N(CC1CC1)C2", "IC50": "> 50 µM (inactive)"},
      {"smiles": "CCOC(=O)c1cc(-c2ccccc2)sc1NC(=O)C(C)N1C(=O)NC(C)(c2ccc(Cl)cc2)C1=O", "note": "(stereo unspecified)", "IC50": "> 50 µM (inactive)"},
      {"smiles": "COCCN1Cc2cccc(C(=O)Nc3cccc(C(=O)Nc4ccccc4)c3)c2C1=O", "IC50": "> 50 µM (inactive)"},
      {"smiles": "O=[N+]([O-])c1ccc(Nc2nc(NC3CCCCC3)nc(N3CCCC3)n2)cc1", "IC50": "11 µM (inactive)"},
      {"smiles": "CN(C)CCCn1c(SCC(=O)Nc2nc(-c3cccc(Br)c3)cs2)nc2ccccc2c1=O", "IC50": "27.1 µM (inactive)"},
      {"smiles": "COc1ccccc1CCN1Cc2cccc(C(=O)Nc3cccc(-c4nc5ccccc5[nH]4)c3)c2C1=O", "IC50": "> 50 µM (inactive)"},
      {"smiles": "COCCN1Cc2cccc(C(=O)Nc3cccnc3)c2C1=O", "IC50": "> 50 µM (inactive)"},
      {"smiles": "CCOCCN1Cc2cccc(C(=O)Nc3cccc(-c4nc5ccccc5[nH]4)c3)c2C1=O", "IC50": "> 50 µM (inactive)"},
      {"smiles": "COc1cc2c(cc1OC)C(C)N(C(=O)c1cc3c(C)cc(C)cc3[nH]1)CC2", "note": "(stereo unspecified)", "IC50": "> 50 µM (inactive)"},
      {"smiles": "COCCn1cnc2cccc(C(=O)Nc3cccc(-c4nc5ccccc5[nH]4)c3)c2c1=O", "IC50": "> 50 µM (inactive)"},
      {"smiles": "CCCC(=O)Nc1nc2ccc(NC(=O)c3ccccc3F)cc2s1", "IC50": "> 50 µM (inactive)"},
      {"smiles": "CCC(C)(C)NC(=O)C(c1ccc(C)cc1)N(Cc1ccco1)C(=O)CCC(=O)Nc1nccs1", "note": "(stereo unspecified)", "IC50": "> 50 µM (inactive)"},
      {"smiles": "O=C(CSc1nc2ccc(Nc3nc(N4CCOCC4)nc(N4CCOCC4)n3)cc2s1)NCc1ccco1", "IC50": "> 50 µM (inactive)"},
      {"smiles": "Cc1ccccc1OCCNc1cc(N2CC(C)NC(C)C2)ccc1[N+](=O)[O-]", "note": "(stereo unspecified)", "IC50": "> 50 µM (inactive)"},
      {"smiles": "COc1cccc(-c2cc(C(=O)Nc3ccc(N(C)C(C)=O)cc3)c3cc(Br)ccc3n2)c1", "IC50": "> 50 µM (inactive)"},
      {"smiles": "O=C(Nc1cccc2ncccc12)c1ccc(Cl)cc1", "IC50": "> 50 µM (inactive)"},
      {"smiles": "CCN(CC)S(=O)(=O)c1ccc(N2CCOCC2)c(NC(=O)c2[nH]c(C)c(C(C)=O)c2C)c1", "IC50": "> 50 µM (inactive)"},
      {"smiles": "CCOC(=O)c1cccc(NC(=O)c2cccc3c2C(=O)N(CCOC)C3)c1", "IC50": "> 50 µM (inactive)"},
      {"smiles": "COCCN1Cc2cccc(C(=O)Nc3cccc(C(=O)Nc4ccccc4OC)c3)c2C1=O", "IC50": "> 50 µM (inactive)"},
      {"smiles": "Cc1cc(C)c2nc(-c3ccncc3)cc(C(=O)N3CCN(Cc4ccccc4Cl)CC3)c2c1", "IC50": "23.6 µM (inactive)"},
      {"smiles": "O=C(CSc1nc2ccc(Nc3nc(N4CCOCC4)nc(N4CCOCC4)n3)cc2s1)Nc1ccccc1Cl", "IC50": "27.8 µM (inactive)"},
      {"smiles": "COCCN1Cc2cccc(C(=O)Nc3cccc(-c4nc5ccc(C(F)(F)F)cc5[nH]4)c3)c2C1=O", "IC50": "> 50 µM (inactive)"},
      {"smiles": "COCCCN1Cc2cccc(C(=O)Nc3cccc(-c4nc5ccccc5[nH]4)c3)c2C1=O", "IC50": "> 50 µM (inactive)"},
      {"smiles": "CCOc1ccccc1NC(=O)c1cccc(NC(=O)c2ccco2)c1", "IC50": "23.2 µM (inactive)"},
      {"smiles": "Cc1ccc(-c2nc(NC(=O)c3cc(C(C)(C)C)nn3C)sc2C)cc1Cl", "IC50": "> 50 µM (inactive)"},
      {"smiles": "COCCN1Cc2cccc(C(=O)Nc3cccc(-c4nc5ccccc5[nH]4)c3)c2C1=O", "IC50": "> 50 µM (inactive)"},
      {"smiles": "CSCCCN1Cc2cccc(C(=O)Nc3cccc(-c4nc5ccccc5[nH]4)c3)c2C1=O", "IC50": "> 50 µM (inactive)"},
      {"smiles": "COCCN1Cc2cccc(C(=O)Nc3nc4ccccc4[nH]3)c2C1=O", "IC50": "> 50 µM (inactive)"},
      {"smiles": "COCCN1Cc2cccc(C(=O)Nc3cccc(-c4nc5ccc(C)cc5[nH]4)c3)c2C1=O", "IC50": "> 50 µM (inactive)"},
      {"smiles": "COc1cc(NC(=O)c2cc([N+](=O)[O-])ccc2NC(=O)CN2CCN(c3ccccn3)CC2)cc(OC)c1", "IC50": "> 50 µM (inactive)"},
      {"smiles": "CCCCSc1nc2ccc(Nc3nc(N4CCOCC4)nc(N4CCOCC4)n3)cc2s1", "IC50": "> 50 µM (inactive)"},
      {"smiles": "Cc1ccccc1NC(=O)CSc1nc2ccc(Nc3nc(N4CCOCC4)nc(N4CCOCC4)n3)cc2s1", "IC50": "40 µM (inactive)"},
      {"smiles": "Cc1ccc(-c2csc(NC(=O)CSc3nc4ccccc4c(=O)n3CCCN(C)C)n2)cc1", "IC50": "> 50 µM (inactive)"},
      {"smiles": "COCCN1Cc2cccc(C(=O)Nc3nc4ccccc4n3C)c2C1=O", "IC50": "> 50 µM (inactive)"},
      {"smiles": "COCCN1Cc2cccc(C(=O)NCc3cccc(N(C)C)c3)c2C1=O", "IC50": "> 50 µM (inactive)"},
      {"smiles": "O=C(Nc1cccc(-c2nc3ccccc3[nH]2)c1)c1cccc2c1C(=O)N(CCc1ccccc1)C2", "IC50": "> 50 µM (inactive)"},
      {"smiles": "CCCC(=O)Nc1nc2ccc(NC(=O)c3c(F)c(F)c(OC)c(F)c3F)cc2s1", "IC50": "> 50 µM (inactive)"},
      {"smiles": "CCCCN1Cc2cccc(C(=O)Nc3cccc(-c4nc5ccccc5[nH]4)c3)c2C1=O", "IC50": "> 50 µM (inactive)"},
      {"smiles": "COCCN1Cc2cccc(C(=O)Nc3cccc(-c4nc5ccc(F)cc5[nH]4)c3)c2C1=O", "IC50": "> 50 µM (inactive)"},
      {"smiles": "Cc1ccc(Nc2nc(OC(C(F)(F)F)C(F)(F)F)nc(N3CCOCC3)n2)cc1", "IC50": "> 50 µM (inactive)"},
      {"smiles": "CCOc1ccc(NC(=O)CN(C)C(=O)c2cc(-c3ccc(OC)cc3)nc3ccccc23)cc1OCC", "IC50": "> 50 µM (inactive)"}
    ]}
  ]
}
